Experimental data taken from ChEMBL document CHEMBL6078616, “Seven-membered N-heterocycles as approved drugs and promising leads in medicinal chemistry as well as the metal-free domino access to their scaffolds” (Eur J Med Chem, 2024).

Legend:
[1] = test system: MCF7; experiment: Antiproliferative activity against human MCF7 cells assessed as reduction in cell viability; format: functional, cell-based
[2] = target: Sphingosine kinase 1 (Homo sapiens, UniProt Q9NYA1); experiment: Inhibition of SPHK1 (unknown origin)
[3] = target: T1, Protein deacetylase HDAC6 (Homo sapiens, UniProt Q9UBN7); experiment: Inhibition of HDAC6 (unknown origin)
T1 sequence (Q9UBN7 whole entry): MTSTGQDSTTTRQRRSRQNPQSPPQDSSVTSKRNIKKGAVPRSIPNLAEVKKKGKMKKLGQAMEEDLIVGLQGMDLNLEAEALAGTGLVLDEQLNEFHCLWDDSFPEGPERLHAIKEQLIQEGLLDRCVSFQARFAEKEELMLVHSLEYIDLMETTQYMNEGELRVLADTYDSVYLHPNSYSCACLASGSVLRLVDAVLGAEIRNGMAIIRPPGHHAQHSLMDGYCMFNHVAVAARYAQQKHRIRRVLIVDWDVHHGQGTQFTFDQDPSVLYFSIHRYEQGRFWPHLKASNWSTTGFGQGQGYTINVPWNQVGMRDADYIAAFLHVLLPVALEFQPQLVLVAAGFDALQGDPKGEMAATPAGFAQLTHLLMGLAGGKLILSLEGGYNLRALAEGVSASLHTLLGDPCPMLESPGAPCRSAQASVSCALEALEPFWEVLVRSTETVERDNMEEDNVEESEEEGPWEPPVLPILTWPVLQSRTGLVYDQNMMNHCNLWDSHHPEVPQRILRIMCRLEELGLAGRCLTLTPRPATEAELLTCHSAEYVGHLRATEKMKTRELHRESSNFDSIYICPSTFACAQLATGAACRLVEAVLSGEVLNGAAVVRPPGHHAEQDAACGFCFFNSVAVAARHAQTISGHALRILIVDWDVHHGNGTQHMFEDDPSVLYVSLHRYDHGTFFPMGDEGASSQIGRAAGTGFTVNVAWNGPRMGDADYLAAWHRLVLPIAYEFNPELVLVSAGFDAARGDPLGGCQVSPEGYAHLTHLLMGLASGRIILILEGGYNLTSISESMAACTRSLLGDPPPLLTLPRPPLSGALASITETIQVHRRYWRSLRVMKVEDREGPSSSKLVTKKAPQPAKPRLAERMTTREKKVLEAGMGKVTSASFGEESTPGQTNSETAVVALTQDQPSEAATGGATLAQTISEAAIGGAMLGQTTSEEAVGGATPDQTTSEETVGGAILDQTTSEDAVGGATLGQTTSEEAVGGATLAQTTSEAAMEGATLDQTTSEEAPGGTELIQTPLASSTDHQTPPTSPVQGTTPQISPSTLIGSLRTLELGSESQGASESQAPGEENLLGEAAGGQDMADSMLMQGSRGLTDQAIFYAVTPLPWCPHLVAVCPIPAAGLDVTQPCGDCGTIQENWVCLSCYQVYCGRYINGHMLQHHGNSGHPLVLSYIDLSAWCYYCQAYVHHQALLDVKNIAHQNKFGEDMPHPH

[4] = target: T2, Histone deacetylase 8 (Homo sapiens, UniProt Q9BY41); experiment: Inhibition of HDAC8 (unknown origin)
T2 sequence (Q9BY41 whole entry): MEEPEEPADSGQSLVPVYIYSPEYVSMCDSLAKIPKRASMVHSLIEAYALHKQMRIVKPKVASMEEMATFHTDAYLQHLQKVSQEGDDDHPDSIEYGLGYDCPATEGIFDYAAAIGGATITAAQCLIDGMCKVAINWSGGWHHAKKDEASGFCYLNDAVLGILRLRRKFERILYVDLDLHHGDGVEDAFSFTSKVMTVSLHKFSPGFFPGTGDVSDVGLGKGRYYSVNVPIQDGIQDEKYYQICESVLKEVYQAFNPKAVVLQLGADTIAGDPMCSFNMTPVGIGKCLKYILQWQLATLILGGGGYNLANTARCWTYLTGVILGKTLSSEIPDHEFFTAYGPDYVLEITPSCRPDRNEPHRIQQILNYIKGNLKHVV

[5] = target: Histone deacetylase 9 (Homo sapiens, UniProt Q9UKV0); experiment: Inhibition of HDAC9 (unknown origin)
[6] = target: Histone deacetylase 3 (Homo sapiens, UniProt O15379); experiment: Inhibition of HDAC3 (unknown origin)
[7] = target: T3, Histone deacetylase 11 (Homo sapiens, UniProt Q96DB2); experiment: Inhibition of HDAC11 (unknown origin)
T3 sequence (Q96DB2 whole entry): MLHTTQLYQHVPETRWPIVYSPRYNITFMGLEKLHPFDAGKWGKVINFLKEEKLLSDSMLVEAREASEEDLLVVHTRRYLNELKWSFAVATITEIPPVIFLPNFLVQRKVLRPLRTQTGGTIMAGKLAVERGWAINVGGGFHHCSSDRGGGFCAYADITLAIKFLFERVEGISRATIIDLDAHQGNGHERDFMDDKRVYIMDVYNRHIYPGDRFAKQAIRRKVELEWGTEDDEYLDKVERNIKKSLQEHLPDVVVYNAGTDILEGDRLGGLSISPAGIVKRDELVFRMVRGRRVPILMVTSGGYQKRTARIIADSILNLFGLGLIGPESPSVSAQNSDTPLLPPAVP

[8] = target: Histone deacetylase 5 (Homo sapiens, UniProt Q9UQL6); experiment: Inhibition of HDAC5 (unknown origin)
[9] = target: T4, Polyamine deacetylase HDAC10 (Homo sapiens, UniProt Q969S8); experiment: Inhibition of HDAC10 (unknown origin)
T4 sequence (Q969S8 whole entry): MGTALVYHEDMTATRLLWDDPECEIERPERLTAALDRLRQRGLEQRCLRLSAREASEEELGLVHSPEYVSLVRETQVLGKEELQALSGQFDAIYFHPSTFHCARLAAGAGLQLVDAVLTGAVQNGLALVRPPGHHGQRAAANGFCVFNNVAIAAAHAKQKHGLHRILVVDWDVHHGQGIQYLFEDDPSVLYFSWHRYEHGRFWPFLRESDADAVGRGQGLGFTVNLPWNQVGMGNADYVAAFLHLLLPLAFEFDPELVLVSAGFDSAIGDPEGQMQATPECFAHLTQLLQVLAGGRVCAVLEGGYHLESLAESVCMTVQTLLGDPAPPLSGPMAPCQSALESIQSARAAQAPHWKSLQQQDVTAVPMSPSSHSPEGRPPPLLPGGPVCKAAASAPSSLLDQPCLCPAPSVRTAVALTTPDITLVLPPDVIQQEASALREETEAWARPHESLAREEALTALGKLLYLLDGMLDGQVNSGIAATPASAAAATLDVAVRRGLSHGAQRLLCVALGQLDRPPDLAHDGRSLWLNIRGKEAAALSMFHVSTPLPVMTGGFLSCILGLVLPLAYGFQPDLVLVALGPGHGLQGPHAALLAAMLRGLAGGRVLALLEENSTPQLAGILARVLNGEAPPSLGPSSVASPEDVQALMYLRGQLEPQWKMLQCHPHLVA

[10] = target: Histone deacetylase 1 (Homo sapiens, UniProt Q13547); experiment: Inhibition of HDAC1 (unknown origin)
[11] = target: T5, Histone deacetylase 7 (Homo sapiens, UniProt Q8WUI4); experiment: Inhibition of HDAC7 (unknown origin)
T5 sequence (Q8WUI4 whole entry): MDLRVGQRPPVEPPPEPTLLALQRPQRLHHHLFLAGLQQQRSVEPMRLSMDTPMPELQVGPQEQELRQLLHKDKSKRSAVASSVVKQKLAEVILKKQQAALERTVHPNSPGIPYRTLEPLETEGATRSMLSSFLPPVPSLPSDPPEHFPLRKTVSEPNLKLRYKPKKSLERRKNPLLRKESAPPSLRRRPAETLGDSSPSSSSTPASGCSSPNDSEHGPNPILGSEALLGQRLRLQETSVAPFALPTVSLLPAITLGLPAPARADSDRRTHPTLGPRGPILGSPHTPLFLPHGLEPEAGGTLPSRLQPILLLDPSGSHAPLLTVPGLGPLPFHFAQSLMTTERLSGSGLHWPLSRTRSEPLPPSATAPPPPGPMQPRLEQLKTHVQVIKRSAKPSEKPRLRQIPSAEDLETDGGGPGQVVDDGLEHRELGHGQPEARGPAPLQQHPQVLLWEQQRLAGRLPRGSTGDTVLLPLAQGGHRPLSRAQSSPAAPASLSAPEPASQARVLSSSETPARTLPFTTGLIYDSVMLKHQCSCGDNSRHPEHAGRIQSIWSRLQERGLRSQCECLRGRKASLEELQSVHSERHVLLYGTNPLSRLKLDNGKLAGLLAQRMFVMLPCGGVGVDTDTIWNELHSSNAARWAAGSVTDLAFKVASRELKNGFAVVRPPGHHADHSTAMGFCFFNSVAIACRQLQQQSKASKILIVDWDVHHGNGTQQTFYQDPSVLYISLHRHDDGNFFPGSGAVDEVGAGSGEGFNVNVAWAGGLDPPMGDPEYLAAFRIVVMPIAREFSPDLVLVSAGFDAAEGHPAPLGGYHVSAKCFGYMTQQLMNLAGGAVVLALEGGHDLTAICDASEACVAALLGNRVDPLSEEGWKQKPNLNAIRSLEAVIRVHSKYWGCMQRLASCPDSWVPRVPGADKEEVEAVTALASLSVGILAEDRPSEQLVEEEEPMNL

[12] = target: Histone deacetylase 2 (Homo sapiens, UniProt Q92769); experiment: Inhibition of HDAC2 (unknown origin)
[13] = target: Histone deacetylase 4 (Homo sapiens, UniProt P56524); experiment: Inhibition of HDAC4 (unknown origin)
[14] = target: Vasopressin V1a receptor (Homo sapiens, UniProt P37288); experiment: Inhibition of Vasopressin V1A receptor (unknown origin)
[15] = target: Spike glycoprotein (Severe acute respiratory syndrome coronavirus 2, UniProt P0DTC2); experiment: Binding affinity to SARS-Cov-2 Spike protein assessed as dissociation constant

Chain of Histone deacetylase 9 (Q9UKV0 whole entry): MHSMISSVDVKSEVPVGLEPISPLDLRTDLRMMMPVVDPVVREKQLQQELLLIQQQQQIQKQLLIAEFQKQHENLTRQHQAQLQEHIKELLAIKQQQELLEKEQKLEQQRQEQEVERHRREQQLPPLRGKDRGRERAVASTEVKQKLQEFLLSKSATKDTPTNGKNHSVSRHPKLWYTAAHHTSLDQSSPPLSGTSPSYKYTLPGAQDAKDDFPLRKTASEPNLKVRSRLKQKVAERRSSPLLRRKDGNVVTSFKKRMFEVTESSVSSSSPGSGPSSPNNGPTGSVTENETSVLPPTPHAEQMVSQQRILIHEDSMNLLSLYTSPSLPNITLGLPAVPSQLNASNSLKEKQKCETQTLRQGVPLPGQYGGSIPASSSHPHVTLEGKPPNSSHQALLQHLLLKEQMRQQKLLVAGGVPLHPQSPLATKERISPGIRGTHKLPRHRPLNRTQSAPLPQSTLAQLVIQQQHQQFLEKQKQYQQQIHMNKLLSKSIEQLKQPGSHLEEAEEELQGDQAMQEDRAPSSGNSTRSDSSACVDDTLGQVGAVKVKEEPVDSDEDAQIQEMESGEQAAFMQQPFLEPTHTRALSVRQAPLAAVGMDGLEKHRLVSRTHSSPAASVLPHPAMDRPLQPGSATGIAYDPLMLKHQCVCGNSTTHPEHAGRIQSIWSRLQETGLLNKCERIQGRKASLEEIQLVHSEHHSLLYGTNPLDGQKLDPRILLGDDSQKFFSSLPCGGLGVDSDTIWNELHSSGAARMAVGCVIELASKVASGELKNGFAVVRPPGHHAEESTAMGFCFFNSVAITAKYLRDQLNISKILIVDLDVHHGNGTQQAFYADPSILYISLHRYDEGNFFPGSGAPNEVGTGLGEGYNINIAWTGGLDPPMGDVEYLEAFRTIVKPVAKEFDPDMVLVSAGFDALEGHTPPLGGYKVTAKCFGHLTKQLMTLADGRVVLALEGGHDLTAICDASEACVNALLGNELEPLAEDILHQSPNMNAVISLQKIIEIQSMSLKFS
Chain of Sphingosine kinase 1 (Q9NYA1 whole entry): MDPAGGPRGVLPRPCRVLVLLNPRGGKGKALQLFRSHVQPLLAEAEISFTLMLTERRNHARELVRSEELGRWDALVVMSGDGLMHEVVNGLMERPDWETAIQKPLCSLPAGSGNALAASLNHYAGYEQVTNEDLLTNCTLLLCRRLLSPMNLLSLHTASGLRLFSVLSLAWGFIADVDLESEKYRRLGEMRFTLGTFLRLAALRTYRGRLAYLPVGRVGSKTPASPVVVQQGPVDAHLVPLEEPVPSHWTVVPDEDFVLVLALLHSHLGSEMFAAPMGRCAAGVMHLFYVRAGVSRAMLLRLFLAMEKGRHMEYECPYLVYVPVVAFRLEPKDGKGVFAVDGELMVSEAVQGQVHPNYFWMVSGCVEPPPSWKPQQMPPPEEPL
Chain of Histone deacetylase 5 (Q9UQL6 whole entry): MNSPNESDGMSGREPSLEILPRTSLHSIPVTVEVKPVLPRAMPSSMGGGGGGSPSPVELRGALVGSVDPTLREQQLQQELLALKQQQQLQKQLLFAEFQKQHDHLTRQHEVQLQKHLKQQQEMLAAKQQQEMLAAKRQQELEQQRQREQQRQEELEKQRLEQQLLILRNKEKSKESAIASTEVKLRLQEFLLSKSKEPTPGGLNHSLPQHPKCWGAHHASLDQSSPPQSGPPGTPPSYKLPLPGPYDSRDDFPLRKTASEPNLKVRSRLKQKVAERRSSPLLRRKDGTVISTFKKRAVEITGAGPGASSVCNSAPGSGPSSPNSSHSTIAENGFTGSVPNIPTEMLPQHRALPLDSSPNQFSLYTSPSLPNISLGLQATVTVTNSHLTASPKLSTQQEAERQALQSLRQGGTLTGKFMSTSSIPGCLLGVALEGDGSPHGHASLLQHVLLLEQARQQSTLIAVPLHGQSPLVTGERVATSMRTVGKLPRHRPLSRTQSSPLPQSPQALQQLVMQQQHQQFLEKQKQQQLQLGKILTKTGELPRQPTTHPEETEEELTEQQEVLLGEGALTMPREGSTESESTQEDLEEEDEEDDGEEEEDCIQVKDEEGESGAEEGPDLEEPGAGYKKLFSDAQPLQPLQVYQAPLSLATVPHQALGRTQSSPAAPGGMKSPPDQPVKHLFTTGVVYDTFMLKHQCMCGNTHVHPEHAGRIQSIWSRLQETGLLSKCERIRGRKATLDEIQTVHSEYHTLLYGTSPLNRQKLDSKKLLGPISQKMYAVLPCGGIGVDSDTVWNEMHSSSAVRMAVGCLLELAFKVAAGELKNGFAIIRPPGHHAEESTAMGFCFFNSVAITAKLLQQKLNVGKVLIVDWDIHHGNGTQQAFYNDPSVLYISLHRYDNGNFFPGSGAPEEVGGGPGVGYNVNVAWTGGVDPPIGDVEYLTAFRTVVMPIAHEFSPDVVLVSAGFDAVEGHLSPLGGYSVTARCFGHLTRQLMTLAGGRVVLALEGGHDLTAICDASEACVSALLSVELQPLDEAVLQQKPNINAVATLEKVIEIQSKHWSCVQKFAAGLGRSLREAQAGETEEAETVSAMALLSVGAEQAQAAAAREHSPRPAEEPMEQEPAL
Chain of Histone deacetylase 1 (Q13547 whole entry): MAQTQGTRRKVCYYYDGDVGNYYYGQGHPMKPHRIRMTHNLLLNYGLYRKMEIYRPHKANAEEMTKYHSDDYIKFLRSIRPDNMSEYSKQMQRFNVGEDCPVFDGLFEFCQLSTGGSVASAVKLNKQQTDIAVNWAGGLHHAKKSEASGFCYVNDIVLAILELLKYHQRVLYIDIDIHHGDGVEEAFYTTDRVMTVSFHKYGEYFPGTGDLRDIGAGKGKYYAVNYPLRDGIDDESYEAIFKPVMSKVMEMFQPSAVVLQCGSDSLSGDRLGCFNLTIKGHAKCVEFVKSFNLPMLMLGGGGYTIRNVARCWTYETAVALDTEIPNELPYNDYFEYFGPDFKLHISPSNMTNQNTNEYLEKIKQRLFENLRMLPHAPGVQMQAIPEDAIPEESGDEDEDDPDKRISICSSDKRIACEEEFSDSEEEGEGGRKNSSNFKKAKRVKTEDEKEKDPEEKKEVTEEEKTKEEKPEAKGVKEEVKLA
Chain of Histone deacetylase 3 (O15379 whole entry): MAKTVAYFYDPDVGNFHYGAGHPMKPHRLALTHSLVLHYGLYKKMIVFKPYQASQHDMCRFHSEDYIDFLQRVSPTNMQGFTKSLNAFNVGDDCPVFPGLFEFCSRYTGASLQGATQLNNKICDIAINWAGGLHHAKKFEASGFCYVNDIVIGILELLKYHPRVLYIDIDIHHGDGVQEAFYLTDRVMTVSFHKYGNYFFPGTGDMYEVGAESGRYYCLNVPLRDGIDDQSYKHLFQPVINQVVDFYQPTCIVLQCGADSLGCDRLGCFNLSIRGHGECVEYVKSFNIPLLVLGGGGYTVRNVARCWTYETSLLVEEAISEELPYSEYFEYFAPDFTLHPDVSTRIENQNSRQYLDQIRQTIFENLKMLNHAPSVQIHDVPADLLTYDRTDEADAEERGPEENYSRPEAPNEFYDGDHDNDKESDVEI
Chain of Histone deacetylase 4 (P56524 whole entry): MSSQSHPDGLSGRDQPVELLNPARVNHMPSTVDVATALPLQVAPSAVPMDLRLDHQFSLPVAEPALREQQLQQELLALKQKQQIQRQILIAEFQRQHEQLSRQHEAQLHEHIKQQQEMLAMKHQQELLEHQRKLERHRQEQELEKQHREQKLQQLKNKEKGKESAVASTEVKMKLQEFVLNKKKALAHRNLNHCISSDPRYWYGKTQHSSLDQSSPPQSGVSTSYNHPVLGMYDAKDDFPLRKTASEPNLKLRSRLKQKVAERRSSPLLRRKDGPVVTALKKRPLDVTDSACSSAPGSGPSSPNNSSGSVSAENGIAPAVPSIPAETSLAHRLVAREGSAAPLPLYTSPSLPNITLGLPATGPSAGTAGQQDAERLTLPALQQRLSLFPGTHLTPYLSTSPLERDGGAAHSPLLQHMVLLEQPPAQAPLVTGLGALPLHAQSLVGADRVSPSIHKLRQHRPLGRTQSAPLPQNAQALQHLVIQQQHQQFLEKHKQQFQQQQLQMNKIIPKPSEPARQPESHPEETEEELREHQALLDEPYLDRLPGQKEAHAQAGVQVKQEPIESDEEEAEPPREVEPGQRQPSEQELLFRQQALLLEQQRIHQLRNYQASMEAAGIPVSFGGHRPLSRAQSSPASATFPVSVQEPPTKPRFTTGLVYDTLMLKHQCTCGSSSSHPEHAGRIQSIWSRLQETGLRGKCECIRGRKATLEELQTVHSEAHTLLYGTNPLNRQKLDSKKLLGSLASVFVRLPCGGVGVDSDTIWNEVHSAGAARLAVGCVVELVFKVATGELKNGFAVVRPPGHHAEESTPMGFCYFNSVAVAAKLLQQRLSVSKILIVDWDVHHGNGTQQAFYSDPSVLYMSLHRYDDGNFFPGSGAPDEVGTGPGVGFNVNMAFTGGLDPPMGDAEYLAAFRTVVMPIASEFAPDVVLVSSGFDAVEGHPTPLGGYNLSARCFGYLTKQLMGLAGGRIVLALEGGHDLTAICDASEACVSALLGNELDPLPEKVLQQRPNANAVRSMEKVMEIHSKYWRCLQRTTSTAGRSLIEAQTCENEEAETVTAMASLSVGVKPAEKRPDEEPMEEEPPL
Chain of Vasopressin V1a receptor (P37288 whole entry): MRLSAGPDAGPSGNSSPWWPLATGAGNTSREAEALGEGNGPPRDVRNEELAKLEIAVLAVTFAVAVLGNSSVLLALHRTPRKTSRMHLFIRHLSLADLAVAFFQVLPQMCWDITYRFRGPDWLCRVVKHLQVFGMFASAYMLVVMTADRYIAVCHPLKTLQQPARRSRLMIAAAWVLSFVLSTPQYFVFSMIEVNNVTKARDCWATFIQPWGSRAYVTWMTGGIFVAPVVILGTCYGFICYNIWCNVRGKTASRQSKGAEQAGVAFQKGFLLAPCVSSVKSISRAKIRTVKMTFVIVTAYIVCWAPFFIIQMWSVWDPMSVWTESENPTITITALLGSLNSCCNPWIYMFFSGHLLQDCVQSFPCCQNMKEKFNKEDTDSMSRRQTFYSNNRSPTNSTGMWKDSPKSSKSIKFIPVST

Compound NCCCNCCCCNCCCNC1=Nc2ccccc2CCC1 has an IC50 [1] greater than 50 µM.
Brc1cc2c(c3ccccc13)N1OC(C2)CC1CCc1ccccc1 (stereo not given) was tested, and the IC50 [2] was greater than 650 µM.
O=C(NO)c1ccc(CN2c3cc(C(F)(F)F)ccc3S(=O)(=O)C[C@H]3CCCC[C@H]32)cc1 showed an IC50 [3] of 0.01 µM, an IC50 [4] of 2 µM and an IC50 [5] greater than 30 µM. It also gave an IC50 [6] of 16 µM, an IC50 [7] of 0.85 µM and an IC50 [8] of 22 µM. For the same compound, the IC50 [9] was 9.4 µM, the IC50 [10] was 8.8 µM and the IC50 [11] was 15 µM. It also gave an IC50 [12] of 16 µM.
O=C(NO)c1ccc(CN2c3ccccc3SC[C@H]3CCCC[C@H]32)cc1 showed an IC50 [3] of 0.03 µM, an IC50 [4] of 5.3 µM and an IC50 [5] of 25 µM. It also gave an IC50 [7] of 1.5 µM, an IC50 [8] of 27 µM and an IC50 [9] greater than 30 µM. For the same compound, the IC50 [10] was greater than 30 µM, the IC50 [13] was greater than 30 µM and the IC50 [11] was greater than 30 µM.
For CC1C[C@]2(C)C(NCCCNCCCCNCCCN)=Nc3ccccc3[C@]2(C)N(C)c2ccccc21 (stereo not given in full), the IC50 [1] was 9.84 µM.
Cc1ccccc1C(=O)Nc1ccc(C(=O)N2CCC[C@H](N(C)C)c3ccccc32)cc1 gave an IC50 [14] of 14 µM.
In the case of CC1Cc2c(Cl)nc(-c3ccccc3)nc2N(C)c2ccc(O)cc21 (stereo not given), the IC50 [2] is reported as greater than 650 µM.
Work on CN1CCCC(n2nc(Cc3ccc(Cl)cc3)c3ccccc3c2=O)CC1 (stereo not given) [AZELASTINE] yielded a Kd [15] of 0.258 µM.
